In data set [1] the target is T1, Mammalian Thymidylate Synthase (Homo sapiens, UniProt P04818).
T1 construct: made in house; host or cells: Escherichia coli
Kind of data set: Thymidylate synthase inhibition, tritium release assay. The data set is classed as biochemical.

Data set [2] concerns SW480 human colon adenocarcinoma. The data set is described as follows: Tumor cell culture cytotoxicity (MTT dye reduction), SW480. To be noted: Homo sapiens.
Protocol: (§1) SW480 and WiDr colon adenocarcinomas, MCF-7 breast adenocarcinoma, A427 lung carcinoma and MOLT-4 T-cell leukemia were used for the primary screening of compounds. […] MCF-7, A427 and SW480 were grown in the above medium further supplemented with sodium pyruvate.
(§2) Cells are seeded into 96-well plates using a Perkin-Elmer Pro/pette. SW480 and A427 were seeded at 8,000 cells per well, MCF-7 at 10,000, Widr at 7500, and MOLT-4 at 12,500 cells per well, all in 150 µl of medium. Prior to the addition of drugs, cultures were incubated for 24 hrs at 37°. Compounds were added at 2×concentration in 150 l of medium and each concentration was assayed in triplicate. If DMSO or ethanol were used to solubilize compounds, appropriate controls were run if the concentration exceeded 0.01%. Cultures were incubated for 72 hours (96 hours for SW480 and MCF-7) in a 37° humidified incubator at 5% CO2. Inhibition of cell growth was measured using the MTT dye reduction assay.
(§3) Cell dilutions for a standard curve were prepared from a 72 hour log-phase culture. Serial dilutions were seeded in triplicate in 96-well plates and incubated at 37 degrees for one hour. MTT (3-(4,5-dimethylthiazol-2-yl)-2,5-diphenyltetrazolium bromide) was dissolved in PBS at 5 mg/ml and sonicated for 30 seconds. Using the Perkin Elmer Pro/pette, 200 μl of medium was removed and 100 μl of MTT added to the wells of the standard curve and test plates. Suspension cultures were spun for 5 min at 1000 rpm before removing medium from the wells. Plates were incubated for 1 hour at 370 on a platform shaker. Following this incubation 100 ml of medium was removed from the wells and 100 μl of DMSO added to each well. The plates were sonicated for approximately 10 seconds to solubilize the precipitated formazan dye. The absorbance of each well was measured using a Titertek Multiscan MC microtiter plate reader at 570 nm with a reference wavelength of 750 nm. Data was collected using a Mariachi Seed-2 and stored and analyzed using an IBM-AT and Lotus 1-2-3 software.
The nature of data set [3]: Cell culture cytotoxicity, D98. Format: cell-based. To be noted: human, D98 bone marrow cell line, read-out: Tumor Cell Culture Cytotoxicity IC50 Other (D98).
Protocol: as §2, §3
A short description of data set [4]: Cell culture cytotoxicity, L cells. The data set is classed as cell-based. The note with it: mouse, L fibroblast cell line, read-out: Tumor Cell Culture Cytotoxicity IC50 Other (L).
Protocol: as §2, §3
For data set [5], the system named is MCF-7 human breast adenocarcinoma. Kind of data set: Tumor cell culture cytotoxicity (MTT dye reduction), MCF-7. The data set is classed as cell-based. To be noted: read-out: Cell Culture Cytotoxicity CCCT MCF-7. For orientation: Formazan colour is commonly taken as a measure of viable cells.
Protocol: as §1, §2, §3
Where [6] appears, read: SW480, read-out: Tumor Cell Culture Cytotoxicity IC50 SW480, Table D, 5,6-dihydro 3-methyl derivatives.
[7] abbreviates: Table B, fully aromatic 3-amino derivatives.
[8] abbreviates: SW480, read-out: Tumor Cell Culture Cytotoxicity IC50 SW480, Table B, fully aromatic 3-amino derivatives.
The mark [9] stands for this setting: Table C, 5,6-dihydro 3-amino derivatives.
The mark [10] stands for this setting: Table E, fully aromatic 3-methyl derivatives.
[11] abbreviates: SW480, read-out: Tumor Cell Culture Cytotoxicity IC50 SW480, Table E, fully aromatic 3-methyl derivatives.
Setting [12] is: Table D, 5,6-dihydro 3-methyl derivatives.
[13] abbreviates: MCF7, Table F, fully aromatic p-aminobenzoylglutamates.
The mark [14] stands for this setting: SW480, read-out: Cell Culture Cytotoxicity CCCT SW-480, Table F, fully aromatic p-aminobenzoylglutamates.

Read-outs that look alike come from different tables or passages of the source.

T1 sequence (P04818 whole entry): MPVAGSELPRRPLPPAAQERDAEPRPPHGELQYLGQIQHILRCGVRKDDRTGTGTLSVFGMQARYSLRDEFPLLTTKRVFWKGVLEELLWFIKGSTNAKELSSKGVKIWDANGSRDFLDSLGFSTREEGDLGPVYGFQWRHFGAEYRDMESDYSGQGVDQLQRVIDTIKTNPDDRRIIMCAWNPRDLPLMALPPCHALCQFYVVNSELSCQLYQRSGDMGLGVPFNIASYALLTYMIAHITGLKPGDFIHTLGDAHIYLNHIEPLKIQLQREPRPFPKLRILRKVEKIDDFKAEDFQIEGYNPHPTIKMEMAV

In the case of `Cc1nc2c(c(=O)[nH]1)-c1cc(S(N)(=O)=O)ccc1CC2` [1,2,5,6-Tetrahydro-3-methyl-1-oxobenzo(f)quinazoline-9-sulfonamide], the melting point is over 240 °C. Further, the IC50 in data set [1] was 1 to 300 µM.

In turn, `Cc1nc2c(c(=O)[nH]1)-c1cc(S(=O)(=O)Nc3ccc([N+](=O)[O-])cc3)ccc1CC2` [1,2,5,6-Tetrahydro-3-methyl-4′-nitro-1-oxobenzo(f)quinazoline-9-sulfonanilide] registered a melting point of over 240 °C. Further, the IC50 in data set [2] (setting [6]) turned out to be 30 µM.

With `Nc1ccc2c(ccc3nc(N)nc(O)c32)c1` [3,8-Diaminobenzo(f)quinazolin-1(2H)-one], the IC50 in data set [1] is 1 to 300 µM; in data set [2] (setting [8]), 100 µM. The IC50 at 72 h in data set [3] (setting [7]) is 53 µM; in data set [4] (setting [7]) it was 40 µM.

As for `COCc1cc2nc(N)nc(O)c2c2ccccc12` [3-Amino-6-(methoxymethyl)benzo(f)quinazolin-1(2H)-one], the IC50 is 1 to 300 µM in data set [1] and 60 µM in data set [2] (setting [8]). Further, the IC50 at 72 h was 74 µM in data set [3] (setting [7]) and 56 µM in data set [4] (setting [7]).

With `Nc1nc2ccc3c(Br)cccc3c2c(=O)[nH]1` [3-Amino-7-bromobenzo(f)quinazolin-1(2H)-one], the IC50 in data set [1] was 1 to 300 µM; in data set [2] (setting [8]), 10 µM. Besides, the figures for the IC50 at 72 h in data set [3] (setting [7]) and in data set [4] (setting [7]) were 56 µM and 28 µM, respectively.

Take `Nc1nc2ccc3c(Cl)cccc3c2c(=O)[nH]1` [3-Amino-7-chlorobenzo(f)quinazolin-1(2H)-one]: the IC50 in data set [1] is 1 to 300 µM; in data set [2] (setting [8]), 25 µM. Also, the IC50 at 72 h in data set [3] (setting [7]) was found to be 60 µM; in data set [4] (setting [7]), 46 µM.

For the compound `Cc1cccc2c1ccc1nc(N)[nH]c(=O)c12` [3-Amino-7-methylbenzo(f)quinazolin-1(2H)-one], the IC50 is 1 to 300 µM in data set [1] and 35 µM in data set [2] (setting [8]). Further, the IC50 at 72 h worked out at 53 µM in data set [3] (setting [7]) and 32 µM in data set [4] (setting [7]).

Take `Nc1nc2ccc3c([N+](=O)[O-])c(F)ccc3c2c(=O)[nH]1` [3-Amino-8-fluoro-7-nitrobenzo(f)quinazolin-1(2H)-one]: the IC50 in data set [1] was 1 to 300 µM; in data set [2] (setting [8]), 30 µM. Further, the IC50 at 72 h in data set [3] (setting [7]) came to 20 µM; in data set [4] (setting [7]), 14 µM.

Turning to `CCSc1ccc2c(c1)-c1c(nc(N)[nH]c1=O)CC2` [3-Amino-9-(ethylthio)-5,6-dihydrobenzo(f)quinazolin-1(2H)-one], the IC50 at 72 h is 54 µM in data set [3] (setting [9]) and 33 µM in data set [4] (setting [9]).

For `Cc1ccc2ccc3nc(N)nc(O)c3c2c1` [3-Amino-9-methylbenzo(f)quinazolin-1(2H)-one], the values for the IC50 in data set [1] and in data set [2] (setting [8]) were under 1 µM and 30 µM, respectively. Further, in data set [4] (setting [7]), the IC50 at 72 h was determined as 8 µM.

As for `Cc1nc2ccc3ccc(CNc4ccc5c(c4)CCC5=O)cc3c2c(=O)[nH]1` [3-Methyl-9-(((1-oxo-5-indanyl)amino)methyl)benzo)[f]quinazolin-1(2H)-one], the IC50 at 72 h was 0.25 µM in data set [3] (setting [10]) and 0.058 µM in data set [4] (setting [10]). Also, in data set [2] (setting [11]), the IC50 came to 0.015 µM.

Turning to `Cc1nc2ccc3ccc(CNc4ccc(C(=O)CCC(=O)O)cc4)cc3c2c(=O)[nH]1` [4-(4-(((1,2-Dihydro-3-methyl-1-oxobenzo[f]quinazolin-9-yl)methyl)amino)phenyl)-4-oxobutyric acid], the IC50 at 72 h came out at 13.5 µM in data set [3] (setting [10]) and 8.8 µM in data set [4] (setting [10]). Besides, in data set [2] (setting [11]), the IC50 worked out at 0.7 µM.

For `Cc1nc2c(c(=O)[nH]1)-c1cc(S(=O)(=O)Nc3ccc(C(N)=O)cc3)ccc1CC2` [4-((1,2,5,6-Tetrahydro-3-methyl-1-oxobenzo(f)quinazolin-9-yl)sulfonamido)benzamide], the melting point was determined as 190 °C. Further, in data set [2] (setting [6]), the IC50 was found to be 80 µM.

The compound `CC(=O)c1ccc(NS(=O)(=O)c2ccc3c(c2)-c2c(nc(C)[nH]c2=O)CC3)cc1` [4′-Acetyl-1,2,5,6-tetrahydro-3-methyl-1-oxobenzo(f)quinazoline-9-sulfonanilide] displayed a melting point of over 240 °C. For the same compound, in data set [2] (setting [6]), the IC50 was found to be 8 µM.

Turning to `Cc1nc(O)c2c(n1)CCc1ccc(I)cc1-2` [5,6-Dihydro-9-iodo-3-methylbenzo(f)quinazolin-1(2H)-one], the IC50 at 72 h stood at 70 µM in data set [3] (setting [12]) and 80 µM in data set [4] (setting [12]).

For the compound `Cc1nc2ccc3c(Cl)cccc3c2c(=O)[nH]1` [7-Chloro-3-methylbenzo(f)quinazolin-1(2H)-one], the IC50 at 72 h in data set [4] (setting [10]) came out at 84 µM.

As for `Cc1nc2ccc3ccc(Cl)cc3c2c(=O)[nH]1` [9-Chloro-3-methylbenzo(f)quinazolin-1(2H)-one], the IC50 at 72 h came out at 82 µM in data set [3] (setting [10]) and 80 µM in data set [4] (setting [10]).

`Cc1nc(O)c2c(ccc3ccc(F)cc32)n1` [9-Fluoro-3-methylbenzo(f)quinazolin-1(2H)-one]: the IC50 at 72 h in data set [3] (setting [10]) worked out at 72 µM; in data set [4] (setting [10]) it was 50 µM.

`Cc1nc2ccc3ccc(CNc4ccc5c(c4)CN([C@@H](CCC(=O)O)C(=O)O)C5=O)cc3c2c(=O)[nH]1` [(S)-2-(5-(((1,2-Dihydro-3-methyl-1-oxobenzo(f)quinazolin-9-yl)methyl)amino)-1-oxo-2-isoindolinyl)glutaric acid]: the figures for the IC50 in data set [5] (setting [13]) and in data set [2] (setting [14]) were 0.0002 µM and 0.0008 µM, respectively.

`CCCCCCCCCCCCOC(=O)CCC(=O)c1ccc(NCc2ccc3ccc4nc(C)[nH]c(=O)c4c3c2)cc1` [Dodecyl 4-(4-(((1,2-dihydro-3-methyl-1-oxobenzo[f]quinazolin-9-yl)methyl)amino)phenyl)-4-oxobutyrate] showed a melting point of 213 to 214 °C. For the same compound, the IC50 in data set [2] (setting [11]) was determined as 0.4 µM.

Regarding `Cc1nc2c(c(=O)[nH]1)-c1ccc([N+](=O)[O-])cc1CC2` [Example 8-NO2, 5,6-dihydro-3-methyl-8-nitrobenzo[f]quinazolin-1(2H)-one], the IC50 at 72 h in data set [3] (setting [12]) and in data set [4] (setting [12]) was 52 µM throughout. Besides, in data set [2] (setting [6]), the IC50 was 100 µM.

On to `CCN(CC)S(=O)(=O)c1ccc2ccc3nc(N)[nH]c(=O)c3c2c1` [Example 9-SO2NEt2, 3-Amino-N,N-diethyl-1,2-dihydro-1-oxobenzo[f]quinazoline-9-sulfonamide], for which the melting point was over 250 °C. Further, the IC50 in data set [2] (setting [8]) was found to be 15 µM. The IC50 in data set [2] (SW480, read-out: Tumor Cell Culture Cytotoxicity IC50 SW480, Table C, 5,6-dihydro 3-amino derivatives) is 30 µM.

As to `CC(=O)c1ccc(NCc2ccc3ccc4nc(C)[nH]c(=O)c4c3c2)cc1` [Example 35, 9-((4-Acetylanilino)methyl)-3-methylbenzo[f]quinazolin-1(2H)-one], the melting point is over 235 °C.

The compound `Nc1nc2ccc3ccc(CNc4ccc(F)cc4)cc3c2c(=O)[nH]1` [Example 38, 3-Amino-9-((4-fluoroanilino)methyl)benzo[f]quinazolin-1(2H)-one] yielded a melting point of over 230 °C.

Compound `CCN(CC)S(=O)(=O)c1ccc2c(c1)-c1c(nc(C)[nH]c1=O)CC2` [N,N-Diethyl-1,2,5,6-tetrahydro-3-methyl-1-oxobenzo(f)quinazoline-9-sulfonamide] yielded a melting point of 249 to 251 °C. This compound showed an IC50 in data set [1] of 1 to 300 µM.

Regarding `Cc1nc2ccc3c(S(=O)(=O)Nc4ccc(C(=O)N[C@@H](CCC(=O)O)C(=O)O)cc4)cccc3c2c(=O)[nH]1` [N-(4-((1,2,-Dihydro-3-methyl-1-oxobenzo(f)quinazolin-7-yl)sulfonamido)benzoyl)-L-glutamic acid], the IC50 in data set [5] (setting [13]) was 50 µM.

For the compound `Cc1nc2ccc3ccc(COc4ccc(C(=O)N[C@@H](CCC(=O)O)C(=O)O)cc4)cc3c2c(=O)[nH]1` [N-(4-((1,2-Dihydro-3-methyl-1-oxobenzo(f)quinazolin-9-yl)methoxy)benzoyl)-L-glutamic acid], the IC50 in data set [5] (setting [13]) is 7 µM; in data set [2] (setting [14]), 70 µM.

Take `Cc1nc2ccc3ccc(CN(C)c4ccc(C(=O)N[C@@H](CCC(=O)O)C(=O)O)cc4)cc3c2c(=O)[nH]1` [N-(4-((1,2-Dihydro-3-methyl-1-oxobenzo(f)quinazolin-9-yl)methyl)methylamino)benzoyl)-L-glutamic acid]: the IC50 in data set [5] (setting [13]) came out at 0.018 µM; in data set [2] (setting [14]), 1.5 µM.

For the compound `Nc1nc2c(c(=O)[nH]1)-c1cc(S(=O)(=O)Nc3ccc(C(=O)N[C@@H](CCC(=O)O)C(=O)O)cc3)ccc1CC2` [N-(4-((3-Amino-1,2,5,6-tetrahydro-1-oxobenzo(f)quinazolin-9-yl)-sulfonamido)benzoyl)-L-glutamic acid], the IC50 in data set [5] (MCF7, Table G, dihydrobenzoquinazoline p-aminobenzoylglutamates) came to 0.65 µM; in data set [2] (SW480, read-out: Cell Culture Cytotoxicity CCCT SW-480, Table G, dihydrobenzoquinazoline p-aminobenzoylglutamates), 7.9 µM.

For the compound `Cc1nc2ccc3ccc(CNc4ccc(C(=O)N[C@@H](CCC(=O)O)C(=O)O)c(F)c4)cc3c2c(=O)[nH]1` [N-(4-(((1,2-Dihydro-3-methyl-1-oxobenzo(f)quinazolin-9-yl)methyl)amino)-2-fluorobenzoyl)-L-glutamic acid], the IC50 in data set [5] (setting [13]) was found to be 0.0007 µM; in data set [2] (setting [14]), 0.02 µM.

Broadly, the melting point is the temperature, or range, at which the solid turns liquid.
